Assay results as given in ChEMBL document CHEMBL3425435, “4,6-Diarylaminothiazines as BACE1 Inhibitors and Their Use for the Reduction of Beta-Amyloid Production” (ACS Med Chem Lett, 2015).

These molecules were tested against Beta-secretase 1 (Homo sapiens, UniProt P56817) (assay: Inhibition of BACE1 in human H4 cells stably transfected with APP751 containing Swedish mutation assessed as reduction in Abeta (1 to 40) and Abeta (1 to 42) production incubated for 19 hrs).
Type: cell-based

Sequence of Beta-secretase 1 (P56817 whole entry): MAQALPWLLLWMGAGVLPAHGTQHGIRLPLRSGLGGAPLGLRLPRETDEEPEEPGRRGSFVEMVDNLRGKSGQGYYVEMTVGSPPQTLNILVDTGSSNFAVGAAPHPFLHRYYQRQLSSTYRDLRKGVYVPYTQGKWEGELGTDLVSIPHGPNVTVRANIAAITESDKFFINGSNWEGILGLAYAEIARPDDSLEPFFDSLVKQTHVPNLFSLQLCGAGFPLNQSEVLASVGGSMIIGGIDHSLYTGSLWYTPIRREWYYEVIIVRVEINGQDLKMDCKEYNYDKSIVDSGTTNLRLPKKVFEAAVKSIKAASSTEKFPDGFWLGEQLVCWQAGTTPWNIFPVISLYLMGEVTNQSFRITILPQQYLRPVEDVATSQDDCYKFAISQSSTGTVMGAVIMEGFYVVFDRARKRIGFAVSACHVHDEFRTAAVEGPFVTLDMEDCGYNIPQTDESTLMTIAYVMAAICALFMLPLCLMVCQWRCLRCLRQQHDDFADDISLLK

In order of falling IC50:
1. Cc1noc(C)c1[C@@H]1C[C@@H](c2cc(-c3cccc(C#N)c3)cs2)N=C(N)S1  300 nM
2. Cc1noc(C)c1[C@@H]1C[C@@H](c2cccc(-c3cncnc3)c2)N=C(N)S1  230 nM
3. Cc1noc(C)c1[C@@H]1C[C@@H](c2cc(-c3cncnc3)c(F)cc2F)N=C(N)S1  200 nM
4. Cc1noc(CC(C)(C)O)c1[C@@H]1C[C@@](C)(c2ccc(F)cc2F)N=C(N)S1  110 nM
5. Cc1noc(C)c1[C@@H]1C[C@@](C)(c2cc(-c3cccnc3C#N)c(F)cc2F)N=C(N)S1  87 nM
6. CC#Cc1cncc(-c2csc([C@@H]3C[C@@H](c4c(C)noc4C)SC(N)=N3)c2)c1  60 nM
7. CC#Cc1cncc(-c2cc(Cl)c([C@]3(C)C[C@@H](c4c(C)noc4C)SC(N)=N3)s2)c1  30 nM
8. Cc1noc(C)c1[C@@H]1C[C@@H](c2cc(NC(=O)c3ccc(Br)cn3)ccc2F)N=C(N)S1  22 nM
9. Cc1noc(C)c1[C@@H]1C[C@@](C)(c2cc(-c3cncnc3)c(F)cc2F)N=C(N)S1  8 nM
